Tests used:
[1] = molecular target: T1, human TRPV1 channel (Homo sapiens, UniProt Q8NER1); test: Calcium imaging (Fura Red-AM), HEK293 cells transfected with hTRPV1-GFP; assay type: cell-based; conditions: 1 µM Cap; hTRPV1-GFP HEK293; pH 7.4, room temperature; n: 58; vs DMSO **** p < 0.0001
T1 construct: host or cells: HEK293
Procedure: (§1) Dr. Alejandro Maureira, Universidad Católica del Maule, Chile, generously provided HEK293 cells. The cells were cultured in T75 flasks (Corning Inc., Corning, NY, USA) in a humidified atmosphere at 37 °C with 5% CO2 in Dulbecco’s Modified Eagle Medium (DMEM) with high glucose (Cytiva, Marlborough, MA, USA), supplemented with 10% fetal bovine serum (Cytiva, Marlborough, MA, USA) and a mixture of 100 IU/mL penicillin and 100 µg/mL streptomycin (Corning Inc., Corning, NY, USA) in a CO2CELL incubator (MMM Group, Munich, Germany). This procedure was used to maintain the cells for all of the experiments.
(§2) HEK293 cells were transfected with the human TRPV1 channel coupled to GFP in its C-terminus (TRPV1-GFP, catalog #: RG217653, Origene, Rockville, MD, USA). […] Transfections were conducted using Lipofectamine 3000 (Invitrogen, Waltham, MA, USA), according to the manufacturer’s instructions. Experimental protocols were performed 24 h post-transfection.
(§3) The data were analyzed and plotted using GraphPad software v10.0.2. We used the Shapiro–Wilk test to determine the data distribution. […] Statistically significant values were considered when p values were * p < 0.05, ** p < 0.01, *** p < 0.001, and **** p < 0.0001.

[2] = tested on: HEK293-untransfected cells; test: Calcium imaging (Fura Red-AM), untransfected HEK293 cells; assay type: cell-based; conditions: 1 µM Cap, confocal, pH 7.4, room temperature, n: 26
Procedure: Dr. Alejandro Maureira, Universidad Católica del Maule, Chile, generously provided HEK293 cells. The cells were cultured in T75 flasks (Corning Inc., Corning, NY, USA) in a humidified atmosphere at 37 °C with 5% CO2 in Dulbecco's Modified Eagle Medium (DMEM) with high glucose (Cytiva, Marlborough, MA, USA), supplemented with 10% fetal bovine serum (Cytiva, Marlborough, MA, USA) and a mixture of 100 IU/mL penicillin and 100 μg/mL streptomycin (Corning Inc., Corning, NY, USA) in a CO2CELL incubator (MMM Group, Munich, Germany). This procedure was used to maintain the cells for all of the experiments. […] Then, the cells were washed and cultured during the experiment with the extracellular solution containing (in mM) 140 NaCl, 5 KCl, 2 CaCl2, 1 MgCl2, 10 HEPES, and 6 glucose, with pH adjusted to 7.4 with NaOH [13]. Calcium images were obtained every 3 s for 30 min using Leica Stellaris 5 spectral confocal microscopy. […] Fura Red emissions in bound and unbound states were acquired around their peaks at 610 nm and 670 nm, respectively. The bound and unbound fluorescence of Fura Red-AM was acquired using Leica LAS X v.4.3.0.24308 software. The Fura Red-Am bound and unbound ratio was calculated (405 nm/488 nm) and plotted. […] The data were analyzed and plotted using GraphPad software v10.0.2. […]

[3] = molecular target: T1, human TRPV1 channel; test: Whole-cell voltage-clamp recording of TRPV1 currents, HEK293 cells with human TRPV1-GFP; assay type: cell-based; conditions: 1 µM Cap; voltage ramp -80 to 80 mV, +80 mV; n: 7; **** p < 0.0001; room temperature
Procedure: as §1, §2
Untransfected and transfected HEK293 cells with the human TRPV1-GFP were recorded using a whole-cell voltage clamp. Cells were cultured in 15 mm round coverslips pretreated with 0.1 mg/mL poly-L-lysine (Gibco, Billings, MT, USA) and transfected with TRPV1-GFP plasmid. TRPV1-GFP-positive cells were identified using a 405 nm LED light in a Nikon Eclipse Ts2 inverted microscope. Borosilicate pipettes (nº 1B150F-4, World Precision Instruments, Sarasota, FL, USA) of 2.8’5 MΩ were used. Pipettes were pulled with a P-97 Micropipette Puller (Sutter Instruments, Novato, CA, USA). The extracellular solution contained (in mM) 140 NaCl, 5 KCl, 2 CaCl2, 1 MgCl2, 10 HEPES, and 6 glucose at pH 7.4. The internal solution contained (in mM) 140 CsCl, 4 MgCl2, 10 EGTA, and 10 HEPES-CsOH at pH 7.3. All the experiments were recorded using a HEKA EPC9 amplifier. The holding potential was −80 mV. A 500 ms voltage ramp from −80 to 80 mV was applied to record TRPV1 currents. The sample frequency was 50 kHz, and the signals were filtered at 2.9 kHz using PatchMaster software. Data were analyzed using Clampfit v.7 software (Molecular Devices, San Jose, CA, USA). The extracellular solution and ligands were administered using a VC-8 perfusion system (~2 mL/s, Warner Instruments, Holliston, MA, USA). We used capsaicin (Cayman Chemicals, nº 92350), SB366791 (nº 11019, Cayman Chemicals, Ann Arbor, MI, USA), and RVD-Hp (Synbio Technologies, Monmouth Junction, NJ, USA). We used dimethyl sulfoxide (DMSO, Sigma-Aldrich, St. Louis, MO, USA) and untransfected cells as controls. Electrophysiological recordings were performed at room temperature.
as §3

[4] = tested on: untransfected HEK293 cells; test: Whole-cell voltage-clamp recording, untransfected HEK293 cells; assay type: cell-based; conditions: 1 µM Cap; voltage ramp -80 to 80 mV; room temperature
Procedure: as §1
Untransfected and transfected HEK293 cells with the human TRPV1-GFP were recorded using a whole-cell voltage clamp. Cells were cultured in 15 mm round coverslips pretreated with 0.1 mg/mL poly-L-lysine (Gibco, Billings, MT, USA) and transfected with TRPV1-GFP plasmid. TRPV1-GFP-positive cells were identified using a 405 nm LED light in a Nikon Eclipse Ts2 inverted microscope. Borosilicate pipettes (nº 1B150F-4, World Precision Instruments, Sarasota, FL, USA) of 2.8’5 MΩ were used. Pipettes were pulled with a P-97 Micropipette Puller (Sutter Instruments, Novato, CA, USA). […] All the experiments were recorded using a HEKA EPC9 amplifier. […] Data were analyzed using Clampfit v.7 software (Molecular Devices, San Jose, CA, USA). […]
The data were analyzed and plotted using GraphPad software v10.0.2. […]

[5] = tested on: TRPV1 channel; parameters: method as in 4 sources, ref [12]; anandamide and 2-AG ref [13],[14],[15],[16] ||| ref [88],[89] = [88]; PMID 27281200; doi:10.1038/nature17964; 88. Gao Y. Cao E. Julius D. Cheng Y. TRPV1 structures in nanodiscs reveal mechanisms of ligand and lipid action Nature 2016 534 347 351 10.1038/nature17964 27281200 PMC4911334 || [89]; PMID 37117175; doi:10.1038/s41467-023-38162-9; 89. Neuberger A. Oda M. Nikolaev Y.A. Nadezhdin K.D. Gracheva E.O. Bagriantsev S.N. Sobolevsky A.I. Human TRPV1 structure and inhibition by the analgesic SB-366791 Nat. Commun. 2023 14 2451 10.1038/s4 ||| ref [90] = [90]; PMID 38698206; doi:10.1038/s41594-024-01299-2; 90. Arnold W.R. Mancino A. Moss F.R. Frost A. Julius D. Cheng Y. Structural basis of TRPV1 modulation by endogenous bioactive lipids Nat. Struct. Mol. Biol. 2024 1 9 10.1038/s41594-024-01299-2 3869820 ||| ref [67] = [67]; PMID 29117570; doi:10.1016/j.celrep.2017.10.063; 67. Nersesyan Y. Demirkhanyan L. Cabezas-Bratesco D. Oakes V. Kusuda R. Dawson T. Sun X. Cao C. Cohen A.M. Chelluboina B. Oxytocin Modulates Nociception as an Agonist of Pain-Sensing TRPV1 Cell Rep. 2; conditions: cited from earlier work
From the text: The transient receptor potential (TRP) channels family involves several subfamilies, including the vanilloid (TRPVs) group. TRPV1, a member of the TRPV subfamily, is a non-selective cationic homotetramer channel. It is known to be activated by various stimuli, including temperature, capsaicin (the principal compound in chili peppers), and endocannabinoids such as anandamide (AEA) and 2-arachidonoylglycerol (2-AG). The TRPV1 channel protein is found in the central (CNS) and peripheral nervous system (PNS). In the CNS, TRPV1 is expressed in the prefrontal cort ... || Molecular dynamics (MD) simulations allow studying protein dynamics at an atomic level under physiological conditions, enhancing our understanding of various proteins, including ion channels like TRPV1 [82]. These simulations provide insight into their function, conformational changes, and interactions with different ligands.

[6] = cited from earlier work
From the text: Capsaicin creams and patches have been used in the treatment of muscle pain, neuropathic pain, arthritis, and migraines. […] CNTX-4975 has been developed as a treatment option for pain in individuals with osteoarthritis.

[7] = tested on: thermal hyperalgesia; conditions: capsazepine administration; ref [12],[32],[33],[34]; cited from earlier work

T1 sequence (Q8NER1 whole entry): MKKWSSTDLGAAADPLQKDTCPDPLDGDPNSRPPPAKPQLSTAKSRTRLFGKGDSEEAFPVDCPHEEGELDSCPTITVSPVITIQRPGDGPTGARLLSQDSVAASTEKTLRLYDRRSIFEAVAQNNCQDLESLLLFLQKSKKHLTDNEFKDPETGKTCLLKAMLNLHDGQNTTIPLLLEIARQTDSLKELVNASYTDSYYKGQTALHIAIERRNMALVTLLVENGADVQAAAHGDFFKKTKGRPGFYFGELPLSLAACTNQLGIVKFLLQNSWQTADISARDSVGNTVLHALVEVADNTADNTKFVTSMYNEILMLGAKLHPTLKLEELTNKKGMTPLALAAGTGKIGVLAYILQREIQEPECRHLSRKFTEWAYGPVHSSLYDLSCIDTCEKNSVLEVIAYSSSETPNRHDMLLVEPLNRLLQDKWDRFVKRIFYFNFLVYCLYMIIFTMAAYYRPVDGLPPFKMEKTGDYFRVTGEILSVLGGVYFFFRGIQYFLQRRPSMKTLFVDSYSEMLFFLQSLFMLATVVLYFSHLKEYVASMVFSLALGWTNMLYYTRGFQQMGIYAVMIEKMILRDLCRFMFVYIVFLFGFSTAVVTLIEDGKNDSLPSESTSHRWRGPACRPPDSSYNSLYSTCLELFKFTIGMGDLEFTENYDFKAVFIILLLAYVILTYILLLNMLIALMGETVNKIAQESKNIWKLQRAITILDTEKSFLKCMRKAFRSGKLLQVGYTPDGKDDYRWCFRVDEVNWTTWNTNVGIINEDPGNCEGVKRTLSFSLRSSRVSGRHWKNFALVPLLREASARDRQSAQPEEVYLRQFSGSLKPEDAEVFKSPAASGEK

Row | SMILES | Intracellular Ca^2+ concentration (Fura Red ratio 405 nm/488 nm), agonist response [1] | Intracellular Ca^2+ concentration (Fura Red ratio 405 nm/488 nm) in untransfected cells [2] | Cap-induced TRPV1 currents [3] | TRPV1 currents in untransfected cells [4] | TRPV1 activation ([5]; capsaicin ref [12], anandamide and 2-AG ref [13],[14],[15],[16]) | Efficacy and bioavailability in vivo [6] | Water solubility [6] | Side effects ([6]; oral administration, ref [98]) | TRPV1 binding mode of antagonists ([5]; requiring four molecules to induce channel closure, ref [88],[89]) | Thermal hyperalgesia [7]
1 | COc1cc(CNC(=O)CCCC/C=C/C(C)C)ccc1O [capsaicin] | produced an increase in intracellular Ca^2+ concentration | did not induce an increase in intracellular Ca^2+ concentration | showed Cap-induced currents | did not observe TRPV1 currents | activated | limited efficacy and bioavailability in vivo | poor water solubility | irritation, orofacial pain, and gastric ulcers |  | 
2 | Oc1cc2c(cc1O)CN(C(=S)NCCc1ccc(Cl)cc1)CCC2 [capsazepine] |  |  |  |  |  |  |  |  | bind to the vanilloid pocket and compete with capsaicin | reduces thermal hyperalgesia

Source: PMC11430712, “The Endocannabinoid Peptide RVD-Hemopressin Is a TRPV1 Channel Blocker” (Biomolecules, 2024)
